Experimental data from patent US20240271102A1, “METHODS FOR ENGINEERING AND USE OF CILIATED ORGANOIDS HAVING NATIVE-LIKE, APICAL-OUT POLARITY” (Carnegie Mellon University, priority 2021, published 2024).

Columns and labels:
Assay type in all cases: cell-based, human
[1] = test system: apical-out airway organoids (AOAOs); experiment: AOAO rotation / angular velocity of […]-embedded organoids (computer vision tracking)
Description: © embedding of AOAOs: Mature AOAOs at day-21 to day-28 of differentiation were collected together and embedded in […]® matrices. For […]® embedding, collected AOAOs were resuspended in 40% (vol/vol) GFR-[…]® in differentiation medium, which was kept on a heat plate set to 37° C. for 10 minutes to enable effective gelation. Upon matrix gelation, differentiation medium was added to the top of the AOAO-containing gel matrices. All matrix-embedded AOAOs were maintained at 37° C. with 5% CO2. The next day, 30-second video recordings of AOAOs were captured using EVOS FL Auto 2 Imaging System. […] The distance covered by each correspondence was measured and converted to the rotational velocity (Sun et al., in 2010 IEEE Computer Society Conference on Computer Vision and Pattern Recognition, 2432-2439, 2010). […] The difference in rotational and angular velocity was quantified by calculating the mean normalized deviation of velocity (rotational and angular) from the mean (FIG. 19E) using the following equation: Treating AOAOs with Paclitaxel or EHNA for angular velocity analysis: Mature AOAOs (day-21 to day-28 of differentiation) were embedded in […]® for two days before treatment with desired chemical inhibitors of cilia motility. […]

[2] = test system: apical-out airway organoids (AOAOs); experiment: Cilia beating frequency (CBF) by kymograph analysis
Description: Imaging the AOAO cilia beating for kymographs generation and cilia beating frequency (CBF) calculation: Mature AOAOs (day-21 to day-28 of differentiation) were transferred to a 1.5-mL Eppendorf tube and kept on ice. Cold collagen type 1 was neutralized with the neutralization solution, added to the organoids at a final concentration of 2 mg/mL, and the entire AOAO-collagen mixture was transferred to the glass bottom region of a MatTek dish. The MatTek dish containing organoids in collagen was kept on ice for additional 10 minutes until the organoids settled down to the bottom of the dish. The MatTek dish was then placed on a heat plate set to 37° C. for 10 minutes. 1 mL of differentiation medium was placed in the dish before capturing video recording of cilia beating using on a Zeiss AxioObserver Z1 microscope with a 100×, 1.45 NA objective and pco.edge 5.5 camera. The high-speed video recordings of cilia beating were preprocessed using the previously described method to smoothen noise and variations in contrast. Additionally, the Contrast Limited Adaptive Histogram Equalization (CLAHE) function in Python v. […] The normal vector with respect to the organoid surface for each region of interest was calculated. […] The peaks in the kymograph were counted and divided by the duration of the video to obtain the CBF value for the organoid. […]

NHBE cells = experiment: Spheroid formation of NHBEs on U-bottom cell repellent surface; details: 10 μM Y27632 in differentiation medium at initial seeding, day 1
Description: Mucociliary differentiation of NHBEs with apical-out polarity was then carried out. Once the cells reached about 75% confluency, the medium was aspirated and cells were rinsed once with DPBS. Trypsin-EDTA (0.25%) was added and incubated at 37° C. After all the cells had lifted, complete RPMI medium was added to neutralize the trypsin. The cell suspension was transferred into a 15 mL centrifuge tube, which was then centrifuged at 220×g for 5 minutes at room temperature. The cell pellet was resuspended to a cell density of 5000 cells/mL in differentiation medium containing 10 μM of Y27632. Aliquots (100 μL) of the cell suspension were then transferred to each well of a 96-well cell-repellent microplate. 50 μL of the media were pipetted out from each well and replaced with fresh differentiation medium every other day. Apical-out organoid formation was examined with different starting NHBE cell numbers (1000, 500, 200, 100, 50, and 20 cells per well) on a 96-well U-bottom cell repellent surface. Studies also were conducted to test whether the addition of 10 μM Y27632 into the differentiation medium for initial seeding improved cell viability and spheroid formation (FIGS. 3A-3F and 4A-4F). […] It is noted that in other experiments, however, a density of 1000 cells per well did support favorable spheroid formation.

[3] = test system: apical-out airway organoids (AOAOs); experiment: MUC5AC goblet cell immunofluorescence staining of apical-out airway organoids
Description: Differentiation of airway basal cells into apical-out airway organoids: Human ABSCs (P2) were trypsinized and resuspended (5000 cells/ml) in differentiation medium ([…]™-ALI Medium) supplemented with 10 μM Y27632. 100 μL of resuspended hABSCs were placed per well in a 96-well cell-repellent microplate (GreinerBio-One, 655970). The cultures were maintained at 37° C. with 5% CO2 for 21-28 days. […]

CCCCCC[C@@H]([C@@H](C)O)n1cnc2c(N)ncnc21 (racemic) [EHNA, erythro-9-(2-hydroxy-3-nonyl)adenine]
change in organoid angular velocity ([1]; EHNA 0, 0.1, 0.3 and 1 mM, 2 hours, mature AOAOs): dose-dependent reduction in organoid angular velocity
cilia beating frequency (CBF) ([2]; 1 mM EHNA, 2 hours): inhibitory effect

C[C@@H](N)[C@H]1CC[C@H](C(=O)Nc2ccncc2)CC1 [Y27632]
spheroid formation with versus without Y27632 (NHBE cells): no significant differences

CC(=O)O[C@H]1C(=O)[C@@]2(C)[C@H]([C@H](OC(=O)c3ccccc3)[C@]3(O)C[C@H](OC(=O)[C@H](O)[C@@H](NC(=O)c4ccccc4)c4ccccc4)C(C)=C1C3(C)C)[C@]1(OC(C)=O)CO[C@@H]1C[C@@H]2O [paclitaxel, Paclitaxel]
organoid angular velocity over time ([1]; paclitaxel 20 μM, monitored periodically for 24 hours): progressive reduction of organoid angular velocity
cilia beating frequency (CBF) ([2]; paclitaxel 20 μM, 24 hours): dramatically reduced CBF

IL-13: pro-inflammatory cytokine interleukin-13
goblet cells (MUC5AC+) in Day 21 AOAOs ([3]; IL-13 5 ng/mL in differentiation medium during the entire differentiation): massive induction of goblet cells
goblet cells (MUC5AC expression) ([3]; IL-13 at concentration as low as 1 ng/mL): exhibited goblet cells
